Consider 27 molecules from patent US10100058B2, “Fused heterocyclic compounds as CaM kinase inhibitors” (Gilead Sciences, Inc., priority 2016, dated 2018).

The structures appear in SMILES notation.

The test concerns the target recombinant CaMKIIδ (Homo sapiens (Human), UniProt Q13557). As to the kind of experiment: CaMKIIδ biochemical assay (HTRF). The settings on record: 10 pM CaMKIIδ, 110 nM calmodulin, 12 μM ATP, 1 hour; read-out: CAMKIID-HTRF-384V2 (IC50 - nM). The protocol:
CaMKIIδ Biochemical Assay
The biochemical activity of recombinant CaMKIIδ was measured by monitoring the phosphorylation of a target peptide using Homogenous Time Resolved Fluorescence (HTRF) technology from CisBio Bioassays.
Background: Time-resolved FRET reads energy transfer from a long-lived donor to a nearby acceptor.
What is called IC50 is the concentration at which inhibition is half-maximal. In the case of `COC1CN(c2cc(C(=O)N3CC4CCC(C3)NC4)cc(-c3cnn4ccc(-c5ccccc5)nc34)n2)C1` (stereo not drawn) [Example 329, (-3,6-diazabicyclo[3.2.2]nonan-3-yl)(2-(3-methoxyazetidin-1-yl)-6-(5-phenylpyrazolo[1,5-a]pyrimidin-3-yl)pyridin-4-yl)methanone], the IC50 came out at 14.1 nM. Then `CCN(CC)[C@@H](C)CNC(=O)c1cc(-c2cnn(C)c2)nc(-c2cnn3ccc(-c4cccs4)nc23)c1` [Example 331, (S)—N-(2-(diethylamino)propyl)-2-(1-methyl-1H-pyrazol-4-yl)-6-(5-(thiophen-2-yl)pyrazolo[1,5-a]pyrimidin-3-yl)isonicotinamide], with 0.08 nM; and `CCN(CC)[C@@H](C)CNC(=O)c1cc(-c2c(C)n[nH]c2C)nc(-c2cnn3ccc(-c4cccs4)nc23)c1` [Example 332, (S)—N-(2-(diethylamino)propyl)-2-(3,5-dimethyl-1H-pyrazol-4-yl)-6-(5-(thiophen-2-yl)pyrazolo[1,5-a]pyrimidin-3-yl)isonicotinamide], with 0.24 nM. For `CCN(CC)[C@@H](C)CNC(=O)c1cc(-c2c[nH]nc2C)nc(-c2cnn3ccc(-c4cccs4)nc23)c1` [Example 333, (S)—N-(2-(diethylamino)propyl)-2-(3-methyl-1H-pyrazol-4-yl)-6-(5-(thiophen-2-yl)pyrazolo[1,5-a]pyrimidin-3-yl)isonicotinamide], the IC50 was found to be 0.22 nM. Consider `CCN(CC)[C@@H](C)CNC(=O)c1cc(-c2c[nH]nc2C(F)(F)F)nc(-c2cnn3ccc(-c4cccs4)nc23)c1` [Example 334, (S)—N-(2-(diethylamino)propyl)-2-(5-(thiophen-2-yl)pyrazolo[1,5-a]pyrimidin-3-yl)-6-(3-(trifluoromethyl)-1H-pyrazol-4-yl)isonicotinamide], for which the IC50 came out at 0.19 nM. Regarding `CCN(CC)[C@@H](C)CNC(=O)c1cc(-c2cnoc2)nc(-c2cnn3ccc(-c4cccs4)nc23)c1` [Example 335, (S)—N-(2-(diethylamino)propyl)-2-(isoxazol-4-yl)-6-(5-(thiophen-2-yl)pyrazolo[1,5-a]pyrimidin-3-yl)isonicotinamide], the half-maximal inhibitory concentration (IC50) is 0.29 nM. Then `CCN(CC)[C@@H](C)CNC(=O)c1cc(-c2cc[nH]n2)nc(-c2cnn3ccc(-c4cccs4)nc23)c1` [Example 336, (S)—N-(2-(diethylamino)propyl)-2-(1H-pyrazol-3-yl)-6-(5-(thiophen-2-yl)pyrazolo[1,5-a]pyrimidin-3-yl)isonicotinamide], with 0.1 nM; and `CCN(CC)[C@@H](C)CNC(=O)c1cc(-c2cnn3ccc(-c4cccs4)nc23)nc(-c2cnn3ccc(-c4cccs4)nc23)c1` [Example 337, (S)—N-(2-(diethylamino)propyl)-2,6-bis(5-(thiophen-2-yl)pyrazolo[1,5-a]pyrimidin-3-yl)isonicotinamide], with 0.33 nM. For `CCN(CC)[C@@H](C)CNC(=O)c1cc(-c2nccs2)nc(-c2cnn3ccc(-c4cccs4)nc23)c1` [Example 338, (S)—N-(2-(diethylamino)propyl)-2-(thiazol-2-yl)-6-(5-(thiophen-2-yl)pyrazolo[1,5-a]pyrimidin-3-yl)isonicotinamide] the value was 0.86 nM; for `CCN(CC)[C@@H](C)CNC(=O)c1cc(-c2ncco2)nc(-c2cnn3ccc(-c4cccs4)nc23)c1` [Example 339, (S)—N-(2-(diethylamino)propyl)-2-(oxazol-2-yl)-6-(5-(thiophen-2-yl)pyrazolo[1,5-a]pyrimidin-3-yl)isonicotinamide], 0.35 nM; for `CCN(CC)[C@@H](C)CNC(=O)c1cc(-c2cn[nH]c2)nc(-c2cnn3ccc(-c4cccs4)nc23)c1` [Example 340, (S)—N-(2-(diethylamino)propyl)-2-(1H-pyrazol-4-yl)-6-(5-(thiophen-2-yl)pyrazolo[1,5-a]pyrimidin-3-yl)isonicotinamide], 0.05 nM.

As to `CCN(CC)[C@@H](C)CNC(=O)c1cc(-c2cnn(CCC#N)c2)nc(-c2cnn3ccc(-c4cccs4)nc23)c1` [Example 341, (S)-2-(1-(2-cyanoethyl)-1H-pyrazol-4-yl)-N-(2-(diethylamino)propyl)-6-(5-(thiophen-2-yl)pyrazolo[1,5-a]pyrimidin-3-yl)isonicotinamide], the IC50 worked out at 0.15 nM. For `CCN(CC)[C@@H](C)CNC(=O)c1cc(-c2cnn(C3COC3)c2)nc(-c2cnn3ccc(-c4cccs4)nc23)c1` [Example 342, (S)—N-(2-(diethylamino)propyl)-2-(1-(oxetan-3-yl)-1H-pyrazol-4-yl)-6-(5-(thiophen-2-yl)pyrazolo[1,5-a]pyrimidin-3-yl)isonicotinamide] the value was 0.13 nM; for `CCN(CC)[C@@H](C)CNC(=O)c1cc(OC[C@H]2CCCO2)nc(-c2cnn3ccc(-c4cccs4)nc23)c1` [Example 343, N—((S)-2-(diethylamino)propyl)-2-(((R)-tetrahydrofuran-2-yl)methoxy)-6-(5-(thiophen-2-yl)pyrazolo[1,5-a]pyrimidin-3-yl)isonicotinamide], 0.26 nM.

Take `CCN(CC)[C@@H](C)CNC(=O)c1cc(OC[C@H](C)OC)nc(-c2cnn3ccc(-c4cccs4)nc23)c1` [Example 344, N—((S)-2-(diethylamino)propyl)-2-((S)-2-methoxypropoxy)-6-(5-(thiophen-2-yl)pyrazolo[1,5-a]pyrimidin-3-yl)isonicotinamide]: the 50% inhibitory concentration (IC50) was found to be 0.56 nM. For `CCN(CC)[C@@H](C)CNC(=O)c1cc(O[C@H]2CCOC2)nc(-c2cnn3ccc(-c4cccs4)nc23)c1` [Example 345, N—((S)-2-(diethylamino)propyl)-2-(((S)-tetrahydrofuran-3-yl)oxy)-6-(5-(thiophen-2-yl)pyrazolo[1,5-a]pyrimidin-3-yl)isonicotinamide] the value was 1.22 nM. Then `CCN(CC)[C@@H](C)CNC(=O)c1cc(O[C@@H]2CCOC2)nc(-c2cnn3ccc(-c4cccs4)nc23)c1` [Example 346, N—((S)-2-(diethylamino)propyl)-2-(((R)-tetrahydrofuran-3-yl)oxy)-6-(5-(thiophen-2-yl)pyrazolo[1,5-a]pyrimidin-3-yl)isonicotinamide], with 1.07 nM; and `CCN(CC)[C@@H](C)CNC(=O)c1cc(OCC2(C)COC2)nc(-c2cnn3ccc(-c4cccs4)nc23)c1` [Example 349, (S)—N-(2-(diethylamino)propyl)-2-((3-methyloxetan-3-yl)methoxy)-6-(5-(thiophen-2-yl)pyrazolo[1,5-a]pyrimidin-3-yl)isonicotinamide], with 0.56 nM; and `CCN(CC)[C@@H](C)CNC(=O)c1cc(OCCc2cnccn2)nc(-c2cnn3ccc(-c4cccs4)nc23)c1` [Example 350, (S)—N-(2-(diethylamino)propyl)-2-(2-(pyrazin-2-yl)ethoxy)-6-(5-(thiophen-2-yl)pyrazolo[1,5-a]pyrimidin-3-yl)isonicotinamide], with 0.31 nM. Then `CCN(CC)[C@@H](C)CNC(=O)c1cc(OCCCOC)nc(-c2cnn3ccc(-c4cccs4)nc23)c1` [Example 351, (S)—N-(2-(diethylamino)propyl)-2-(3-methoxypropoxy)-6-(5-(thiophen-2-yl)pyrazolo[1,5-a]pyrimidin-3-yl)isonicotinamide], with 0.34 nM; and `CCN(CC)[C@@H](C)CNC(=O)c1cc(OCCN2CCOCC2)nc(-c2cnn3ccc(-c4cccs4)nc23)c1` [Example 352, (S)—N-(2-(diethylamino)propyl)-2-(2-morpholinoethoxy)-6-(5-(thiophen-2-yl)pyrazolo[1,5-a]pyrimidin-3-yl)isonicotinamide], with 0.21 nM. As to `CCN(CC)[C@@H](C)CNC(=O)c1cc(OCC(C)(C)O)nc(-c2cnn3ccc(-c4cccs4)nc23)c1` [Example 353, (S)—N-(2-(diethylamino)propyl)-2-(2-hydroxy-2-methylpropoxy)-6-(5-(thiophen-2-yl)pyrazolo[1,5-a]pyrimidin-3-yl)isonicotinamide], the IC50 came to 0.1 nM. Then `CCN(CC)[C@@H](C)CNC(=O)c1cc(OCc2cccnc2)nc(-c2cnn3ccc(-c4cccs4)nc23)c1` [Example 354, (S)—N-(2-(diethylamino)propyl)-2-(pyridin-3-ylmethoxy)-6-(5-(thiophen-2-yl)pyrazolo[1,5-a]pyrimidin-3-yl)isonicotinamide], with 1.05 nM.

With `CCN(CC)[C@@H](C)CNC(=O)c1cc(OCc2ccc[n+]([O-])c2)nc(-c2cnn3ccc(-c4cccs4)nc23)c1` [Example 355, (S)-3-(((4-((2-(diethylamino)propyl)carbamoyl)-6-(5-(thiophen-2-yl)pyrazolo[1,5-a]pyrimidin-3-yl)pyridin-2-yl)oxy)methyl)pyridine 1-oxide], the IC50 was 0.54 nM. Then `CCC(CNC(=O)c1cc(-c2cnn3ccc(-c4cccs4)nc23)nc(N2CC[C@H]2C(=O)NC)c1)N(CC)CC` (stereo partly drawn) [Example 356, N-(2-(diethylamino)butyl)-2-((S)-2-(methylcarbamoyl)azetidin-1-yl)-6-(5-(thiophen-2-yl)pyrazolo[1,5-a]pyrimidin-3-yl)isonicotinamide], with 0.7 nM. Then `CCCN(CC)[C@@H](C)CNC(=O)c1cc(-c2cnn3ccc(-c4cccs4)nc23)nc(N2CC[C@H]2C(=O)NC)c1` [Example 357, N—((S)-2-(ethyl(propyl)amino)propyl)-2-((S)-2-(methylcarbamyl)azetidin-1-yl)-6-(5-(thiophen-2-yl)pyrazolo[1,5-a]pyrimidin-3-yl)isonicotinamide], with 0.27 nM; and `CCN(CC)[C@@H](CO)CNC(=O)c1cc(-c2cnn3ccc(-c4cccs4)nc23)nc(N2CC[C@H]2C(=O)NC)c1` [Example 358, N—((R)-2-(diethylamino)-3-hydroxypropyl)-2-((S)-2-(methylcarbamoyl)azetidin-1-yl)-6-(5-(thiophen-2-yl)pyrazolo[1,5-a]pyrimidin-3-yl)isonicotinamide], with 0.46 nM.
